According to patent US20230123497A1, “NOVEL ANTIBACTERIAL HYDROGELS” (NewSouth Innovations Pty Limited, priority 2020, published 2023):

Experiments:
[1] = Hydrogel formation, vial inversion test (critical gel concentration); type: physicochemical; details: for pH: hydrogels of cationic peptides 10-14; for CGC: triggers GdL, heat and NaCl (13: heat and NaCl)
Description: (§1) The simplest method to determine whether a suitable hydrogel has formed is to use the vial inversion test. Through visual inspection, a material can be categorised as a solution, viscous solution, partial gel, or solid-like gel. A stable hydrogel needs to be able to hold its weight and/or maintain its shape during this assessment.
(§2) The critical gel concentration (CGC) is defined as the minimum mass of a short peptide required to provide a self-supporting hydrogel per unit volume in the vial inversion test (measured as % w/v).
(§3) Pre-weighed samples of short peptide 4 were prepared in aluminium-covered glass vials and Milli-Q water and 2 equivalents of NaOH (1.0 M) were added to make up concentrations of 1% w/v. The resulting suspensions were vortexed for 5 minutes to provide clear yellow solutions with pH 11.
(§4) To create a high ionic strength environment, 1 equivalent of NaCl was added and the vial was left to stand without disturbance for 3 hours at room temperature. Meanwhile, as an attempt to form a hydrogel by lowering the pH, 2 equivalents of GdL were added to a high pH solution of 4 followed by gentle mixing. These vials were inverted and allowed to stand overnight to confirm the hydrogel formation.
(§5) The formation of hydrogel 4 via the solvent switch method was conducted by dissolving short peptide 4, in an aluminium covered glass vial, with either 50% methanol, ethanol, or dimethyl sulfoxide (DMSO). Respective amounts of Mili-Q water were added to make up concentrations of 1% w/v.
(§6) In addition, gelation time was defined as the time (hours) required for 1% w/v of short peptide 4 to form a hydrogel which can be turned upside down without collapsing.
(§7) Pre-weighed samples of short peptides 10a-17a, 18, and 19 were prepared in glass vials with 10 mm internal diameter, and Milli-Q water was added to make up concentrations of 1% w/v. The resulting suspensions of short peptides 13, 18, and 19 (as ammonium or guanidinium salts) were slowly warmed until all solid had completely dissolved. GdL (1.5 to 2.0 equivalents) was added to the suspension of short peptides 10a-17a, before heat was applied. To create a high ionic strength environment, 1-5 equivalents of NaCl was added to the viscous solution of 10a-17a to make the total volume up to 1 mL, followed by gentle mixing, and the vial was left to stand without disturbance for 3 hours at room temperature. Subsequently, these vials were inverted and allowed to stand overnight to confirm hydrogel formation.

[2] = Strain sweep test (SST), linear viscoelastic region; type: physicochemical; details: hydrogels at 1% w/v, SST at 1 Hz, 0.1% to 100% strain
Description: (§8) Initially, 1 mL of hydrogels were prepared from short peptides 11-13 and 15-19 in glass vials at concentration of 1% w/v. These vials were warmed using a heat gun to transform the hydrogel to the solution phase. Subsequently, 560 μL of the resulting solutions were cast onto the rheometer plate. The other plate was lowered to the measuring position ([…]) and the hydrogel was allowed to stand for 3 hours for the gel to form. The FST was conducted at fixed strain of 0.1% and frequency ranging from 10 Hz to 0.01 Hz. Meanwhile, the strain sweep test (SST) was performed at a frequency of 1 Hz using 0.1% strain to 100% strain. The rheology data were shown as the average of three repeats for each data point.
(§9) The mechanical properties of hydrogels 4 (formed via addition of NaCl or GdL) before and after blue light irradiation were also assessed using an Anton Paar MCR 302 rheometer with a 25 mm stainless parallel plate configuration. Prior to the hydrogel formation, 560 μL of solution phase of short peptide 4 at 1% w/v were transferred onto a rheometer plate. Meanwhile, hydrogel 4, which had been exposed to blue light, was warmed using a heat gun, to provide its solution phase. Subsequently, 560 μL of this solution phase was cast onto the rheometer plate. The other plate was lowered to the measuring position ([…]) and the hydrogel was allowed to stand for 3 hours for the gel to form. The frequency sweep test (FST) was conducted at fixed strain of 0.1% and frequency ranging from 10 Hz to 0.01 Hz. Meanwhile, the SST was performed at a frequency of 1 Hz using 0.1% strain to 100% strain. In addition, the temperature sweep test was conducted to obtain transition glass (Tg) using fixed frequency of 1 Hz and fixed strain of 0.1% with temperature ramping from 25° C. to 90° C. The rheology data were shown as the average of three repeats for each data point.
To observe the structural decay in anthranilamide-based cationic hydrogels, the SST was performed by imposing a non-linear strain. SST provides information about the viscoelastic properties of a hydrogel through determination of its linear viscoelastic region (LVER). […] Here, the LVER reported for each hydrogel represents the deviation of storage modulus (G′) from linearity, known as yield point (γy). Yield points have been reported to reflect a point where the rigidity of a hydrogel starts to weaken.

[3] = test system: S. aureus 38; test: Antibacterial activity of cationic hydrogels, viable count method; type: cell-based, Staphylococcus aureus; details: hydrogel at 1% w/v in contact with S. aureus, compared to control
Description: The antibacterial activity of the anthranilamide-based cationic hydrogels 11-13 and 15-19 was investigated in vitro against S. aureus. The antibacterial activity of anthranilamide-based cationic hydrogel 11 was also investigated in vitro against E. coli.
First, a single colony of S. aureus 38 or E. coli K12 was grown in Luria-Bertani (LB) broth medium at 37° C. overnight. The resulting bacteria were harvested, via centrifugation, to obtain a bacteria pellet which was re-suspended in the same volume of LB medium, twice. The optical density (OD) value of the resulting culture was adjusted to 0.1 at 600 nm in LB (10^8 cfu·mL^−1). This bacteria solution was then further adjusted to 3×10^4 cfu mL^−1. (CFU or cfu=colony-forming unit). Bacteria solutions (1 mL), which contain either 10^8 CFUs/mL or 3×10^4 CFUs/mL, were gently added to hydrogel 11 at 1% w/v with total volume of 1 mL. Anthranilamide-based cationic hydrogels 11-13 and 15-19 (1 mL) were prepared at 1% w/v in glass vials as described above. On top of these pre-formed hydrogels, 1 mL of bacteria solution was carefully cast. […] As a negative control, a bacterial solution in the absence of hydrogel was used. After being incubated at 37° C. for 18 hours, 100 μL of bacteria solution in each vial was taken and subjected to serial dilution using phosphate buffer solution (PBS). 20 μL of each dilution were carefully transferred into nutrient agar plates and incubated for another 18 hours. The following day, bacterial growth inhibition was quantified using the viable count method. The experiment was performed twice in triplicate and multiple sample comparison was performed using one-way ANOVA at p<0.05.

[4] = Frequency sweep test (FST), rheometer; type: physicochemical; details: hydrogels 11-13 at 1% w/v; for G′ (modulus storage) / G″ (modulus loss): FST fixed strain 0.1%
Description: The mechanical properties of anthranilamide-based cationic hydrogels were assessed using an Anton Paar MCR 302 rheometer with a 25 mm stainless parallel plate configuration.
as §8, §9
In the FST, samples were measured over a range of oscillation frequencies (0.1-10 rad/s) at fixed strain, temperature, and oscillation amplitude. Higher frequencies simulate fast motion on a short time-scale, while low frequencies simulate slow motion on a long time-scale, or rest. All of the hydrogels made from the anthranilamide-based short cationic peptides, which passed the vial inversion test, were subjected to the FST using a rheometer to precisely assess their mechanical properties.

[5] = Atomic force microscopy (AFM) of fibers; type: physicochemical; details: hydrogel after addition of salt, 4× below CGC
Description: Hydrogels of NO-releasing short peptide 4 (1 drop), at high pH, low pH, and after irradiation, were cast onto a mica substrate. Hydrogels of cationic short peptides 11-13 and 15-19 were prepared at their CGC, 2× below, and 4× below CGC in glass vials. Prior to gelation, one drop of the cationic short peptide solutions was cast onto a mica substrate. Using a glass slide, each droplet was carefully spread and was left to dry overnight before imaging. Imaging was performed using a Bruker Multimode 8 Atomic Force Microscope in Scanasyst Air (PeakForce Tappings) mode, which is based on tapping mode AFM. To prevent damage of soft samples, the imaging parameters were constantly optimized through the force curves that were collected. Bruker Scanasyst-Air probes were used, with a spring constant of 0.4-0.8 N·m^−1 and a tip radius of 2 nm.
To gain some insight on the mechanism of antibacterial action, the released solutions from hydrogel made of primary ammonium 11 were directly cast onto a mica substrate. […] After gently spreading using a glass slide and left to dry overnight, these samples were imaged using a similar manner as describe above.

[6] = Hydrogel formation, vial inversion test (critical gel concentration); type: physicochemical; design: key: VS: viscous solution; CG: clear gel; details: cationic peptides 10-14; vial inversion test
Description: as §1, §2, §3, §4, §5, §6, §7

[7] = as above; type: physicochemical; design: key: OG: opaque gel; P: precipitate; details: cationic peptides 10-14; vial inversion test
Description: as §1, §2, §3, §4, §5, §6, §7

Row | Remarks (gel state) ([1]; cationic peptides 10-14, vial inversion test) | pH [1] | LVER (linear viscoelastic region) [2] [%] | G′/G″ ratio [4] | G′ (modulus storage) [4] [kPa] | G″ (modulus loss) [4] [kPa] | CGC ([1]; cationic peptides 10-14) [% w/v] | fiber bundle diameter [5] [nm] | Remarks (gel state) [6] | Remarks (gel state) [7] | SMILES | bacterial reduction [3] [Log10]
1 | CG → PG | 5.5 | – | – | – | – | – | – | – | – | NCCNC(=O)[C@H](Cc1ccccc1)NC(=O)c1ccccc1NC(=O)c1ccc2ccccc2c1 [Compound 10] | –
2 | – | 5.5 | 0.98 ± 0.02 | 15.7 | 8.63 | 0.55 | 0.3 | 139±10 | CG | – | CN(C)CCCNC(=O)[C@H](Cc1ccccc1)NC(=O)c1ccccc1NC(=O)c1ccc2ccccc2c1 [Compound 12] | 5.1
3 | – | 6 | 1.10 ± 0.04 | 10.9 | 2.28 | 0.21 | 0.2 | 148±16 | – | OG | C[N+](C)(C)CCCNC(=O)[C@H](Cc1ccccc1)NC(=O)c1ccccc1NC(=O)c1ccc2ccccc2c1.[I-] [Compound 13, (S)-3-(2-(2-(2-naphthamido)benzamido)-3-phenylpropanamido)-N,N,N-trimethylpropan-1-aminium iodide] | 4.1
4 | – | 6 | – | – | – | – | – | – | – | – | N=C(N)NCCCNC(=O)[C@H](Cc1ccccc1)NC(=O)c1ccccc1NC(=O)c1ccc2ccccc2c1 [Compound 14] | –
